Test results as given in patent US20050182100A1, “Method of use” (priority 2002, published 2005).

Columns and labels:
[1] = tested on: patients affected by sleeping disturbance; experiment: Administration of esomeprazole to patients affected by sleeping disturbance; assay type: in vivo, human; details: especially with GERD, oral route
Text: This applies especially to patients with GERD.
While the effect on the symptoms of sleeping disturbance have been established in patients who have taken esomeprazole by the oral route, it is believed that the improved effect of esomeprazole is a systemic effect which is not dependent on what mode of administration that is used, and that accordingly the improved effect on sleeping and quality of life will be seen also with other routes of administration such as rectal or parenteral administration.
The invention is further exemplified by the following case studies. During oral treatment with esomeprazole for acid related diseases such as non-erosive and erosive induced upper gastrointestinal disorders, evidence has accumulated that esomeprazole may be beneficial for treatment of sleeping disturbance especially in patients with GERD and endoscopy negative GERD.

[2] = at neutral or acid pH; cited from earlier work
[3] = tested on: patients with dyspepsia associated with gastric ulcers, duodenal ulcers, reflux esophagitis and gastroesophageal reflux without esophagitis; details: clinical studies; cited from earlier work

Compound: COc1ccc2nc([S@@+]([O-])Cc3ncc(C)c(OC)c3C)[nH]c2c1 [esomeprazole, S-5-methoxy-2-[[(4-methoxy-3,5-dimethyl-2-pyridinyl)methyl]sulfinyl]-1H-benzimidazole]
- effect on symptoms of sleeping disturbance [1]: disappearance or great improvement of the symptoms
- storage stability [2]: poor storage stability

Compound: COc1ccc2[nH]c([S+]([O-])Cc3ncc(C)c(OC)c3C)nc2c1 (racemic) [omeprazole, 5-methoxy-2-[[(4-methoxy-3,5-dimethyl-2-pyridinyl)methyl]sulfinyl]-1H-benzimidazole]
- healing of gastroduodenal and esophageal lesions and dyspeptic symptom resolution versus H2 receptor antagonists [3]: superior to H2 receptor antagonists
